{"source": "paper PMC2233883", "about": "(The Journal of General Physiology, 2004)", "molecular_target": "T1, MloK1 (Mesorhizobium japonicum, UniProt Q98GN8)", "T1 sequence (Q98GN8 1-355)": "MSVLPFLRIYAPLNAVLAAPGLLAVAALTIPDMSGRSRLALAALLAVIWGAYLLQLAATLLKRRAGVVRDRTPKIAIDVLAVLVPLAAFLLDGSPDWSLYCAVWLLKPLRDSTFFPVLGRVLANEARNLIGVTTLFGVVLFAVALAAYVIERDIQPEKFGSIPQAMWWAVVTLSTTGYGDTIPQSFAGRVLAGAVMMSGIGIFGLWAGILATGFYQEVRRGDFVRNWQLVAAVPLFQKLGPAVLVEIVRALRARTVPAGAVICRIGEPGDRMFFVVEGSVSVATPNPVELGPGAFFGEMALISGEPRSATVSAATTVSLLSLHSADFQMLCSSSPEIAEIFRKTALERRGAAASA", "assay": "[…]+ uptake into MloK1-reconstituted liposomes, dose-response", "format": "biochemical"}
{"smiles": "Nc1nc2c(ncn2[C@@H]2O[C@@H]3COP(=O)(O)O[C@H]3[C@H]2O)c(=O)[nH]1", "note": "[cGMP]", "values": [{"measurement": "EC50", "result": 0.6, "unit": "µM"}]}
